Where “and” joins values, the source holds several entries; their conditions need not be identical. Equal values may be shown once. Where a name gives a salt, the structure may show the parent alone. Read-outs that look alike come from different tables or passages of the source.
What was measured:
K562/Dox cells = experiment: MTT colorimetric assay, cytotoxicity on resistant K562/Dox; format: cell-based; settings: for IC50: Homo sapiens, K562, 48 h, read-out: IC50 K562/Dox; for toxicity: 50 μM
Description: This colorimetric technique is based on the ability of viable cells to capture MTT and reduce it through the mitochondrial enzyme succinic dehydrogenase to its insoluble form, formazan crystals. The target compounds dissolved in DMSO (0.5% v/v as final concentration which was non-toxic to cells) at a maximum concentration of 50 µM were exposed to 5 × 10^4 cells distributed in a 96-well plate and incubated for 48 h. […] After this time, the plate was centrifuged at 2000 rpm for 10 min, and 100 µL of DMSO was added to dissolve the formazan crystals formed. Absorbance (Abs) was read at a wavelength of 595 nm in an iMark microplate reader (Bio-Rad, USA). The percentages of cytotoxicity were determined as compared to DMSO treated control cells, which were considered 100% viable as showing the same level of growth as the untreated cells.

K562 cells = experiment: MTT colorimetric assay, cytotoxicity on sensitive K562; format: cell-based; settings: for IC50: Homo sapiens, MTT, 48 h; for toxicity: 50 μM, K562, MTT
Description: This colorimetric technique is based on the ability of viable cells to capture MTT and reduce it through the mitochondrial enzyme succinic dehydrogenase to its insoluble form, formazan crystals. […] After this time, the plate was centrifuged at 2000 rpm for 10 min, and 100 µL of DMSO was added to dissolve the formazan crystals formed. Absorbance (Abs) was read at a wavelength of 595 nm in an iMark microplate reader (Bio-Rad, USA).

P-gp = P-gp (Homo sapiens, UniProt P08183); experiment: Rhodamine 123 intracellular accumulation assay in K562/Dox (flow cytometry); settings: for Rho123 accumulation / anti-P-gp activity / MEC (minimum effective concentration): K562/Dox; for Rho123 accumulation / anti-P-gp activity: highest concentrations tested (50 or 6.25 µM); for FAR (fluorescence activity ratio): Rho123, K562/Dox; for MEC (minimum effective concentration): Rho123 accumulation
Sequence of P-gp (P08183 whole entry): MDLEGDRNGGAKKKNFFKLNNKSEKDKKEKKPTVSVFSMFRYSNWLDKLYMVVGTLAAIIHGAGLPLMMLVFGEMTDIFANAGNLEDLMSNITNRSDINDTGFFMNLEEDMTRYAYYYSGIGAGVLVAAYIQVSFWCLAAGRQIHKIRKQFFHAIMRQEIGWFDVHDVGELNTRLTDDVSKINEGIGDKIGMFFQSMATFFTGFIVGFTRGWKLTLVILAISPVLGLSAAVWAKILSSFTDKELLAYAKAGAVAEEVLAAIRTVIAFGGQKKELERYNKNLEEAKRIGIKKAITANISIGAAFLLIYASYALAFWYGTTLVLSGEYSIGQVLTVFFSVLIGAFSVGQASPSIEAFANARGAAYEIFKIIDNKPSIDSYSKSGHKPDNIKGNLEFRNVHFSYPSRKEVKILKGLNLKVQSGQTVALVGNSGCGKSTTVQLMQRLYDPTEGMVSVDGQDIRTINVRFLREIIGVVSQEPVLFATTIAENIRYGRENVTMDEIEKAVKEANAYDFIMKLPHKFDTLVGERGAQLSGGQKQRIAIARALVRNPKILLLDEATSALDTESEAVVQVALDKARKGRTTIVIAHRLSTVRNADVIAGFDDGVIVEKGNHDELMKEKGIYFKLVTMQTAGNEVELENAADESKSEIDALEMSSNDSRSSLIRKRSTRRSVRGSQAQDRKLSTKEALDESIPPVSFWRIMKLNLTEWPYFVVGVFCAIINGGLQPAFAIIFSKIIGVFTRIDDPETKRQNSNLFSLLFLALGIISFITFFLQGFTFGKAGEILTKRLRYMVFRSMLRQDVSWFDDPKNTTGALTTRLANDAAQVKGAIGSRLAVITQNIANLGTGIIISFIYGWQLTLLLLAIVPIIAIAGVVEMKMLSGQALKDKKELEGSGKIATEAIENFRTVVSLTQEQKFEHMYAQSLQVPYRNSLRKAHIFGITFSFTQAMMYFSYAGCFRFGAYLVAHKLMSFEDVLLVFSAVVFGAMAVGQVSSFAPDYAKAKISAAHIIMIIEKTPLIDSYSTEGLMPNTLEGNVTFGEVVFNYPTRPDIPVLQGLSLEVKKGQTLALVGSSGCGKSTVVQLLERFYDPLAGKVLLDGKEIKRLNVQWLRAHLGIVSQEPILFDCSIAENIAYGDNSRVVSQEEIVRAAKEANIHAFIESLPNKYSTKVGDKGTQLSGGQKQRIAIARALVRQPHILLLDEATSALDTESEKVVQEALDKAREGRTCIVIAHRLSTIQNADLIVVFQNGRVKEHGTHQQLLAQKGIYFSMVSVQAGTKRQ

Structure (SMILES)	IC50 (K562/Dox cells; MTT, 48 h, K562/Dox) [µM]	IC50 (K562 cells; K562, 48 h, K562) [µM]	Rho123 accumulation / anti-P-gp activity (P-gp)	FAR (fluorescence activity ratio) (P-gp; 50 µM)	MEC (minimum effective concentration) (P-gp)	FAR (fluorescence activity ratio) (P-gp; 25 µM)	FAR (fluorescence activity ratio) (P-gp; 12.50 µM)	FAR (fluorescence activity ratio) (P-gp; 6.25 µM)	also measured
C=C(C)[C@@H]1CC[C@]2(COC(=O)c3ccc(OC)cc3)CC[C@]3(C)[C@H](CC[C@@H]4[C@@]5(C)CC[C@H](O)C(C)(C)[C@@H]5CC[C@]43C)[C@@H]12 [Compound 3a]	> 50	> 50	did not induce statistically significant Rho123 accumulation	0.88 ± 0.02	> 50 µM				
C=C(C)[C@@H]1CC[C@]2(COC(=O)c3cc(OC)c(OC)c(OC)c3)CC[C@]3(C)[C@H](CC[C@@H]4[C@@]5(C)CC[C@H](O)C(C)(C)[C@@H]5CC[C@]43C)[C@@H]12 [Compound 3b]	> 50	> 50		1.06 ± 0.003	50 µM	0.94 ± 0.03			
C=C(C)[C@@H]1CC[C@]2(COC(=O)/C=C/c3ccc(OC)cc3OC)CC[C@]3(C)[C@H](CC[C@@H]4[C@@]5(C)CC[C@H](O)C(C)(C)[C@@H]5CC[C@]43C)[C@@H]12 [Compound 3c]	> 50	> 50	did not induce statistically significant Rho123 accumulation	0.74 ± 0.05	> 50 µM				
C=C(C)[C@@H]1CC[C@]2(COC(=O)/C=C/c3cc(OC)c(OC)c(OC)c3)CC[C@]3(C)[C@H](CC[C@@H]4[C@@]5(C)CC[C@H](O)C(C)(C)[C@@H]5CC[C@]43C)[C@@H]12 [Compound 3d]	> 50	> 50	did not induce statistically significant Rho123 accumulation	1.00 ± 0.06	> 50 µM				
C=C(C)[C@@H]1CC[C@]2(COC(=O)/C=C/c3cc(OC)c(OC)cc3OC)CC[C@]3(C)[C@H](CC[C@@H]4[C@@]5(C)CC[C@H](O)C(C)(C)[C@@H]5CC[C@]43C)[C@@H]12 [Compound 3e]	> 50	> 50	did not induce statistically significant Rho123 accumulation	0.78 ± 0.01	> 50 µM				
C=C(C)[C@@H]1CC[C@]2(C(=O)NCc3cc(OC)c(OC)c(OC)c3)CC[C@]3(C)[C@H](CC[C@@H]4[C@@]5(C)CC[C@H](O)C(C)(C)[C@@H]5CC[C@]43C)[C@@H]12 [Compound 4]	34.4 ± 2.59	19.7 ± 0.59			25 µM and 25.0 µM		1.04 ± 0.01		toxicity (K562/Dox cells; K562/Dox, MTT): more than 55%; toxicity (K562 cells): more than 55%; fold less active against P-gp than carbamate 6d (P-gp; ratio of MEC values, Rho123): 32
C=C(C)[C@@H]1CC[C@]2(COC(=O)Nc3cc(OC)c(OC)c(OC)c3)CC[C@]3(C)[C@H](CC[C@@H]4[C@@]5(C)CC[C@H](O)C(C)(C)[C@@H]5CC[C@]43C)[C@@H]12 [Compound 6a]	> 50	> 50		1.62 ± 0.10	1.56 µM	1.33 ± 0.11	1.20 ± 0.08	1.12 ± 0.02	FAR (fluorescence activity ratio) (P-gp; 0.78 µM): 0.98 ± 0.02; FAR (fluorescence activity ratio) (P-gp; 1.56 µM): 1.17 ± 0.02; FAR (fluorescence activity ratio) (P-gp; 3.12 µM): 1.12 ± 0.005
C=C(C)[C@@H]1CC[C@]2(COC(=O)NCc3ccc(OC)cc3)CC[C@]3(C)[C@H](CC[C@@H]4[C@@]5(C)CC[C@H](O)C(C)(C)[C@@H]5CC[C@]43C)[C@@H]12 [Compound 6b]	> 50	> 50		1.60 ± 0.07	50 µM	0.90 ± 0.11			
C=C(C)[C@@H]1CC[C@]2(COC(=O)NCc3ccc(OC)c(OC)c3)CC[C@]3(C)[C@H](CC[C@@H]4[C@@]5(C)CC[C@H](O)C(C)(C)[C@@H]5CC[C@]43C)[C@@H]12 [Compound 6c]	> 50	> 50		1.97 ± 0.15	3.12 µM	1.65 ± 0.11	1.40 ± 0.06	1.23 ± 0.01	FAR (fluorescence activity ratio) (P-gp; 1.56 µM): 1.00 ± 0.02; FAR (fluorescence activity ratio) (P-gp; 3.12 µM): 1.13 ± 0.03
C=C(C)[C@@H]1CC[C@]2(COC(=O)NCc3cc(OC)c(OC)c(OC)c3)CC[C@]3(C)[C@H](CC[C@@H]4[C@@]5(C)CC[C@H](O)C(C)(C)[C@@H]5CC[C@]43C)[C@@H]12 [Compound 6d]	> 50	> 50		2.80 ± 0.32	0.78 µM	2.48 ± 0.29		1.88 ± 0.17	FAR (fluorescence activity ratio) (P-gp; 0.78 µM): 1.16 ± 0.03; FAR (fluorescence activity ratio) (P-gp; 1.56 µM): 1.27 ± 0.08; FAR (fluorescence activity ratio) (P-gp; 3.12 µM): 1.64 ± 0.16
C=C(C)[C@@H]1CC[C@]2(COC(=O)NCCc3ccc(OC)cc3)CC[C@]3(C)[C@H](CC[C@@H]4[C@@]5(C)CC[C@H](O)C(C)(C)[C@@H]5CC[C@]43C)[C@@H]12 [Compound 6e]	> 50	> 50		1.53 ± 0.09	50 µM and 50.0 µM	1.04 ± 0.11			
C=C(C)[C@@H]1CC[C@]2(COC(=O)NCCc3ccc(OC)c(OC)c3)CC[C@]3(C)[C@H](CC[C@@H]4[C@@]5(C)CC[C@H](O)C(C)(C)[C@@H]5CC[C@]43C)[C@@H]12 [Compound 6f]	> 50	> 50		2.27 ± 0.31	1.56 µM	1.95 ± 0.25	1.73 ± 0.18	1.45 ± 0.16	FAR (fluorescence activity ratio) (P-gp; 0.78 µM): 1.02 ± 0.02; FAR (fluorescence activity ratio) (P-gp; 1.56 µM): 1.13 ± 0.04; FAR (fluorescence activity ratio) (P-gp; 3.12 µM): 1.25 ± 0.02
C=C(C)[C@@H]1CC[C@]2(COC(=O)N3CCNCC3)CC[C@]3(C)[C@H](CC[C@@H]4[C@@]5(C)CC[C@H](O)C(C)(C)[C@@H]5CC[C@]43C)[C@@H]12 [Compound 6h]	12.5 ± 0.5	4.6 ± 0.24	did not induce statistically significant Rho123 accumulation					1.06 ± 0.08	toxicity (K562/Dox cells; K562/Dox, MTT): more than 55%; toxicity (K562 cells): more than 55%
C=C(C)[C@@H]1CC[C@]2(COC(=O)NCCN3CCN(C(=O)OC(C)(C)C)CC3)CC[C@]3(C)[C@H](CC[C@@H]4[C@@]5(C)CC[C@H](O)C(C)(C)[C@@H]5CC[C@]43C)[C@@H]12 [Compound 6j]	> 50	> 50		2.57 ± 0.11	12.50 µM	1.68 ± 0.03	1.25 ± 0.02	1.08 ± 0.04	
COc1cccc2c1C(=O)c1c(O)c3c(c(O)c1C2=O)C[C@@](O)(C(=O)CO)C[C@@H]3O[C@H]1C[C@H](N)[C@H](O)[C@H](C)O1 [Doxorubicin, Doxorubicin hydrochloride, reference compound]	84.2 ± 7.08	2.61 ± 0.7							fold resistance of K562/Dox versus K562 (K562/Dox cells; ratio of IC50 values, MTT): 32.3
COc1ccc(CCN(C)CCCC(C#N)(c2ccc(OC)c(OC)c2)C(C)C)cc1OC (stereo not shown) [Verapamil, Verapamil hydrochloride, reference compound]									inhibition on proliferation / toxicity (K562/Dox cells; 50 μM (highest concentration assayed), K562/Dox): not toxic; IC50 (K562/Dox cells): > 50 µM; inhibition on proliferation / toxicity (K562 cells; 50 μM (highest concentration assayed), K562): not toxic; IC50 (K562 cells; K562): > 50 µM

From PMC10762177, “Novel betulin derivatives as multidrug reversal agents targeting P-glycoprotein” (Scientific Reports, 2024)
